Here are results for 13 compounds from US20250059175A1, “Mutant Pi3k-Alpha Inhibitors And Their Use As Pharmaceuticals” (Prelude Therapeutics Incorporated, priority 2023, published 2025).

In general, IC50 refers to the concentration that inhibits the measured activity by half.

The subject of assay [1] is phosphorylation of AKT on Ser473 (PI3K pathway) in SKBR3 (PIK3CA WT) cell line. The experiment in a line: PI3K pathway activation assay (pAKT Ser473 HTRF), SKBR3 cells. Type of assay: cell-based. Particulars: Homo sapiens, SK-BR-3, 2 h, two hours of treatment. Here is the method: (§1) The inhibitory activity of the compounds of the disclosure was evaluated by measuring phosphorylation of AKT on Ser473 as a readout of the PI3K pathway using HTRF (CisBio catalog number: 64AKSPE). These studies were conducted in the T-47D (heterozygous PIK3CA H1047R) and SKBR3 (PIK3CA WT) cell lines. Cells were maintained in a 37° C. incubator at 5% CO2 in the following media: T-47D: RPMI 1640, ATCC© Modification (Gibco, A10491-01) supplemented with 10% v/v FBS (Gibco, 26140-079), 1% penicillin streptomycin (Gibco, 15140-122), and 7.4 ug/mL insulin (MilliporeSigma, I9278); SKBR3: McCoy's 5a (Modified) Medium (Gibco, 16600-082) supplemented with 10% v/v FBS (Gibco, 26140-079). Cells were seeded in 384-well plates at a density of 4,000 cells/well. Compounds dissolved in DMSO were added using a digital dispense (D300E, Tecan) 10-point serial dilution. After two hours of treatment, cells were lysed for thirty minutes and then incubated with detection reagents per HTRF kit material and manufacturer's instructions. Fluorescence signal was measured with a multimode plate reader (Envision 2105, Perkin Elmer). Fluorescent signal was normalized to background and DMSO controls to obtain percent inhibition/activity for each compound.
On the technique in general: In TR-FRET formats the signal depends on donor and acceptor labels being close together.

The test system of assay [2] is phosphorylation of AKT on Ser473 (PI3K pathway) in T-47D (heterozygous PIK3CA H1047R) cell line. Nature of the assay: PI3K pathway activation assay (pAKT Ser473 HTRF), T-47D cells. Particulars: T-47D (heterozygous PIK3CA H1047R) cells, two hours of treatment, pAKT Ser473 HTRF; for IC50: Homo sapiens, T47D, 2 h, read-out: T47D pAKT IC50. Type of assay: cell-based. Here is the method: as §1

Structures are written as SMILES. Bounds are passed on as bounds.

With `Cc1cc([C@@H](C)Nc2ccc(Cl)nc2C(=O)O)nc(N2C(=O)OC[C@@H]2Cc2ccc(F)cc2F)c1` [Example 26, 6-Chloro-3-(((R)-1-(6-((S)-4-(2,4-difluorobenzyl)-2-oxooxazolidin-3-yl)-4-methylpyridin-2-yl)ethyl)amino)picolinic acid], the IC50 was above 10000 nM in assay [1] and below 100 nM in assay [2].
On the same counts, the results for `Cc1cc([C@@H](C)Nc2ccc(Cl)nc2C(=O)O)nc(N2C(=O)OC[C@@H]2Cc2ccc(C#N)cc2F)c1` [Example 49, 6-Chloro-3-(((R)-1-(6-((S)-4-(4-cyano-2-fluorobenzyl)-2-oxooxazolidin-3-yl)-4-methylpyridin-2-yl)ethyl)amino)picolinic acid] are above 10000 nM and below 100 nM.
The like results for `Cc1cc([C@@H](C)Nc2ccc(Cl)nc2C(=O)O)nc(N2C(=O)OC[C@@H]2Cc2cccc(C)c2F)c1` [Example 20, 6-Chloro-3-(((R)-1-(6-((S)-4-(2-fluoro-3-methylbenzyl)-2-oxooxazolidin-3-yl)-4-methylpyridin-2-yl)ethyl)amino)picolinic acid] were, in that order, above 10000 nM and below 100 nM.
The like results for `Cc1cc([C@@H](C)Nc2ccc(Cl)nc2C(=O)O)nc(N2C(=O)N(C)C[C@@H]2Cc2ccc(F)cc2F)c1` [Example 59, 6-Chloro-3-(((R)-1-(6-((S)-5-(2,4-difluorobenzyl)-3-methyl-2-oxoimidazolidin-1-yl)-4-methylpyridin-2-yl)ethyl)amino)picolinic acid] were, in that order, above 10000 nM and 100 to 1000 nM.
Consider `Cc1cc(C(C)Nc2ccc(F)nc2C(=O)O)nc(N2C(=O)OC[C@@H]2Cc2ccccc2)c1` (single isomer, unassigned) [Example 11], for which the IC50 in assay [1] is above 10000 nM; in assay [2], below 100 nM.
On to `Cc1cc([C@@H](C)Nc2ccc(Cl)nc2C(=O)O)nc(N2C(=O)N(C)C[C@@H]2Cc2ccccc2)c1` [Example 60, 3-(((R)-1-(6-((S)-5-Benzyl-3-methyl-2-oxoimidazolidin-1-yl)-4-methylpyridin-2-yl)ethyl)amino)-6-chloropicolinic acid], for which the figures for the IC50 in assay [1] and in assay [2] were 1000 to 10000 nM and below 100 nM, respectively.
The like results for `COc1ccc(C[C@H]2COC(=O)N2c2cc(C)cc([C@@H](C)Nc3ccc(Cl)nc3C(=O)O)n2)c(F)c1` [Example 27, 6-Chloro-3-(((R)-1-(6-((S)-4-(2-fluoro-4-methoxybenzyl)-2-oxooxazolidin-3-yl)-4-methylpyridin-2-yl)ethyl)amino)picolinic acid] were, in that order, above 10000 nM and below 100 nM.
On the same counts, the results for `Cc1cc([C@@H](C)Nc2ccc(Cl)nc2C(=O)O)nc(N2C(=O)OC[C@@H]2Cc2ccc(C(F)(F)F)cc2)c1` [Example 23, 6-Chloro-3-(((R)-1-(4-methyl-6-((S)-2-oxo-4-(4-(trifluoromethyl)benzyl)oxazolidin-3-yl)pyridin-2-yl)ethyl)amino)picolinic acid] are above 10000 nM and below 100 nM.
Turning to `Cc1cc(C(C)Nc2ccc(Cl)nc2C(=O)O)nc(N2C(=O)OC[C@@H]2Cc2ccccc2)c1` (single isomer, unassigned) [Example 12], the IC50 in assay [1] is 1000 to 10000 nM. For the same compound, in assay [2], the “T47D pAKT IC50” value is “++ ++”.
For `Cc1cc([C@@H](C)Nc2ccc(Cl)nc2C(=O)O)nc(N2C(=O)OC[C@@H]2Cc2cccc(C#N)c2)c1` [Example 48, 6-Chloro-3-(((R)-1-(6-((S)-4-(3-cyanobenzyl)-2-oxooxazolidin-3-yl)-4-methylpyridin-2-yl)ethyl)amino)picolinic acid], the IC50 in assay [1] was above 10000 nM; in assay [2], below 100 nM.
The like results for `Cc1cc([C@@H](C)Nc2ccc(Cl)nc2C(=O)O)nc(N2C(=O)OC[C@@H]2Cc2ccc(F)cc2)c1` [Example 24, 6-Chloro-3-(((R)-1-(6-((S)-4-(4-fluorobenzyl)-2-oxooxazolidin-3-yl)-4-methylpyridin-2-yl)ethyl)amino)picolinic acid] were, in that order, above 10000 nM and below 100 nM.
Take `C[C@@H](Nc1ccc(Cl)nc1C(=O)O)c1cc(F)cc(N2C(=O)OC[C@@H]2Cc2ccccc2F)c1` [Example 61, 6-Chloro-3-(((R)-1-(3-fluoro-5-((S)-4-(2-fluorobenzyl)-2-oxooxazolidin-3-yl)phenyl)ethyl)amino)picolinic acid]: the IC50 in assay [1] is 1000 to 10000 nM; in assay [2] it was below 100 nM.
On the same counts, the results for `Cc1cc([C@@H](C)Nc2ccc(Cl)nc2C(=O)O)nc(N2C(=O)N(C)C[C@@H]2Cc2ccc(F)cc2)c1` [Example 58, 6-Chloro-3-(((R)-1-(6-((S)-5-(4-fluorobenzyl)-3-methyl-2-oxoimidazolidin-1-yl)-4-methylpyridin-2-yl)ethyl)amino)picolinic acid] are above 10000 nM and below 100 nM.
